Measured values: ChEMBL document CHEMBL5325437, “Shifting the selectivity of pyrido[2,3-d]pyrimidin-7(8H)-one inhibitors towards the salt-inducible kinase (SIK) subfamily” (Eur J Med Chem, 2023)
pIC50: −log10 of the molar value. Active and inactive are the calls of the source. The calls are words filed in the database; no cut-off is given here.

Columns and labels:
[1] = biological target: Serine/threonine-protein kinase 24 (Homo sapiens) (UniProt Q9Y6E0); test: Binding affinity to recombinant MST3 (unknown origin) assessed as stabilization by measuring change in melting temperature at 10 uM by SYPRO orange dye based differential scanning fluorimetry assay
Chain of Serine/threonine-protein kinase 24 (Homo sapiens) (Q9Y6E0 whole entry, looked up): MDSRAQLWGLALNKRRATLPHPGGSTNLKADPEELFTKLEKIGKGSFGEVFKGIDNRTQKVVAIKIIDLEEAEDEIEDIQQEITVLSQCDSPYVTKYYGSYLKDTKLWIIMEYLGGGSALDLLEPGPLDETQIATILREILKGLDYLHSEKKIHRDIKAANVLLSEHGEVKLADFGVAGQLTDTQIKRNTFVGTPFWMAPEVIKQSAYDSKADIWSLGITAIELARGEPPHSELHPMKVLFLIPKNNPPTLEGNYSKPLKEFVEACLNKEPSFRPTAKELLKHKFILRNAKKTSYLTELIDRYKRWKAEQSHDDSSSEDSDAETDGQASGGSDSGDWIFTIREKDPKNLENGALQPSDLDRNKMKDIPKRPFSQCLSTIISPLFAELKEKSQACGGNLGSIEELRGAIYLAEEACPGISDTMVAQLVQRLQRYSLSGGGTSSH

[2] = biological target: Serine/threonine-protein kinase SIK2 (Homo sapiens) (UniProt Q9H0K1); test: Inhibition of SIK2 in human SK-OV-3 cells assessed as decrease in centrosome dissociation in G2 phase at 5 uM incubated for 48 hrs by immunofluorescence assay; type: cell-based
Chain of Serine/threonine-protein kinase SIK2 (Homo sapiens) (Q9H0K1 whole entry, looked up): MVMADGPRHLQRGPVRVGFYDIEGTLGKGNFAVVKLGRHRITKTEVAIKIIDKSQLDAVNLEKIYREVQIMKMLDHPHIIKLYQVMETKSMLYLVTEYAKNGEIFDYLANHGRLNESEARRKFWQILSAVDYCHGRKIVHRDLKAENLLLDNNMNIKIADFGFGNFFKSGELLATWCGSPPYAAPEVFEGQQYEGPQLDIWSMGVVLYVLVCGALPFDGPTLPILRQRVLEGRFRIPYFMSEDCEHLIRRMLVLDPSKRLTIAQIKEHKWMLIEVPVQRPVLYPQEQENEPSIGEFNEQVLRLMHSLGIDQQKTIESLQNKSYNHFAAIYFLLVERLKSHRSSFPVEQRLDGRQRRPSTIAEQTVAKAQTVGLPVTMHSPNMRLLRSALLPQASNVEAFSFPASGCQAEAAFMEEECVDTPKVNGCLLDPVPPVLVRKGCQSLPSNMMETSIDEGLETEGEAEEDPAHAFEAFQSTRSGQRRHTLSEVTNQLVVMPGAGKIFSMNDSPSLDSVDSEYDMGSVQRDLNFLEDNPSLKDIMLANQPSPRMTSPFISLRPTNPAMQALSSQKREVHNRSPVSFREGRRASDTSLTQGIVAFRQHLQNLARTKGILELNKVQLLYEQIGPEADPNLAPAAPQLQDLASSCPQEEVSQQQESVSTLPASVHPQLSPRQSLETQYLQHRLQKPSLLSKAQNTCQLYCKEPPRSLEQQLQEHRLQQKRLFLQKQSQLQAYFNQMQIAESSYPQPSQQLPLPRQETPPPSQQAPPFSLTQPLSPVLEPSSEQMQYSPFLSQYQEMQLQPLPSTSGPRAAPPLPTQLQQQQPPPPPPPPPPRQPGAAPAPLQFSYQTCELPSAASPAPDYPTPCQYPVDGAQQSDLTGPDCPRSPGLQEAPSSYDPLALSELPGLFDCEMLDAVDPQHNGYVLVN

[3] = biological target: Serine/threonine-protein kinase SIK2 (Homo sapiens) (UniProt Q9H0K1); test: Inhibition of recombinant human GST-tagged SIK2 assessed as downregulation of SIK2 phosphorylation at Ser358 a 5 uM incubated for 30 mins by Western blotting analysis
SK-OV-3 [4] = test: Induction of cell cycle arrest in human SK-OV-3 cells assessed as accumulation of cells at S phase at 5 uM incubated for 24 hrs by flow cytometry (reference value: 32%); type: functional
[5] = biological target: T1, Serine/threonine-protein kinase 4 (Homo sapiens) (UniProt Q13043); test: Binding affinity to recombinant MST1 (unknown origin) assessed as stabilization by measuring change in melting temperature at 10 uM by SYPRO orange dye based differential scanning fluorimetry assay
T1 sequence (whole entry): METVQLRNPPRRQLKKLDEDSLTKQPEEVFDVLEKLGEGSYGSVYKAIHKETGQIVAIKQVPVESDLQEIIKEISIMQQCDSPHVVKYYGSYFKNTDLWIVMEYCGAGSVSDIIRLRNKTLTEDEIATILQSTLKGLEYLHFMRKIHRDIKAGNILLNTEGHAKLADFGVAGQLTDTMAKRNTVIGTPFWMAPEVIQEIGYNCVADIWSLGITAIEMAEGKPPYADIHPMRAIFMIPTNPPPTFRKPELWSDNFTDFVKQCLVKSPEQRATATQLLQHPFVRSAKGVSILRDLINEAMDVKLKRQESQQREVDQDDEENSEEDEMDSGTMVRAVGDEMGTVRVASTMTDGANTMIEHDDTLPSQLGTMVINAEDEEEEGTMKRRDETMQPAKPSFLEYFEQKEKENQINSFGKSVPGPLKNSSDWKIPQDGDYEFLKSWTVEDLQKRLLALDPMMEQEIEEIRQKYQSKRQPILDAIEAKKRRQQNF

HCT-116 [6] = test: Cytotoxicity against human HCT-116 cells assessed as reduction in cell count at 1 uM incubated for >60 hrs by Hoechst-33342 staining high-content imaging analysis; type: toxicity, cell-based; settings: hct-116, 60 h
SK-OV-3 [7] = test: Induction of cell cycle arrest in human SK-OV-3 cells assessed as accumulation of cells at G1 phase at 5 uM incubated for 24 hrs by flow cytometry (reference value: 34%); type: functional
[8] = biological target: T2, Serine/threonine-protein kinase 3 (Homo sapiens) (UniProt Q13188); test: Binding affinity to recombinant MST2 (unknown origin) assessed as stabilization by measuring change in melting temperature at 10 uM by SYPRO orange dye based differential scanning fluorimetry assay
T2 sequence (whole entry): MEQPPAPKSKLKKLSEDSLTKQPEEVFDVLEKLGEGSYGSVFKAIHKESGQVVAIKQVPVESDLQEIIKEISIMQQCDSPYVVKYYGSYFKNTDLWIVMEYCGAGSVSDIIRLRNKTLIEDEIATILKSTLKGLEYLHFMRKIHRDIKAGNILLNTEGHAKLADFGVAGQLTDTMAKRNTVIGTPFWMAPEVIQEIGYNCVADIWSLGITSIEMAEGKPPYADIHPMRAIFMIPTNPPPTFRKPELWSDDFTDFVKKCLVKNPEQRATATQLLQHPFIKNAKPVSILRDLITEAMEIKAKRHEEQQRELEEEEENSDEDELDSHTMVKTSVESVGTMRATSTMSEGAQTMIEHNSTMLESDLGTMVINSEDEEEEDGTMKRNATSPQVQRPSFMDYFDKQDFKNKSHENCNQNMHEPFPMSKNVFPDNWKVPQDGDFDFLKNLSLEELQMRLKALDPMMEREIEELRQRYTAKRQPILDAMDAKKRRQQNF

HCT-116 [9] = test: Cytotoxicity against human HCT-116 cells assessed as decrease in cell viability at 10 uM incubated for 24 hrs by Hoechst-33342 staining high-content imaging analysis; type: toxicity, cell-based; settings: hct-116, 24 h
[10] = biological target: Serine/threonine-protein kinase SIK2 (Homo sapiens) (UniProt Q9H0K1); test: Inhibition of recombinant human GST-tagged SIK2 assessed as downregulation of SIK2 phosphorylation at Ser358 incubated for 30 mins by Western blotting analysis
[11] = biological target: Serine/threonine-protein kinase 26 (Homo sapiens) (UniProt Q9P289); test: Binding affinity to recombinant MST4 (unknown origin) assessed as stabilization by measuring change in melting temperature at 10 uM by SYPRO orange dye based differential scanning fluorimetry assay
Chain of Serine/threonine-protein kinase 26 (Homo sapiens) (Q9P289 2-416 limits assumed): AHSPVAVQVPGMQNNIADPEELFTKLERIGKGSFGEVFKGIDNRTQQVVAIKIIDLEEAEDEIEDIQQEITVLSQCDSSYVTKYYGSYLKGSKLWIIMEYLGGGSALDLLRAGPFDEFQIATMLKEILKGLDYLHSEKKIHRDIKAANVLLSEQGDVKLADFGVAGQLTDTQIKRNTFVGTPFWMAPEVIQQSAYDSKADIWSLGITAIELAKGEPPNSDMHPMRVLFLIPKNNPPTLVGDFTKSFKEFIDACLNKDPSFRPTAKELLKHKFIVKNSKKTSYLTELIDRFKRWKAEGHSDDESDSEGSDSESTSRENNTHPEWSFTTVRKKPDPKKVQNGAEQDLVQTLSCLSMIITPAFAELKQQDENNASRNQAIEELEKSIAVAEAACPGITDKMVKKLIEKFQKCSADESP

[12] = biological target: Serine/threonine-protein kinase SIK2 (Homo sapiens) (UniProt Q9H0K1); test: Inhibition of SIK2 in human SK-OV-3 cells assessed as downregulation of AKT phosphorylation at Ser473 at 5 uM incubated for 48 hrs by Western blotting analysis; type: cell-based
[13] = biological target: Serine/threonine-protein kinase PAK 1 (Homo sapiens) (UniProt Q13153); test: Binding affinity to recombinant PAK1 (unknown origin) assessed as stabilization by measuring change in melting temperature at 10 uM by SYPRO orange dye based differential scanning fluorimetry assay
Chain of Serine/threonine-protein kinase PAK 1 (Homo sapiens) (Q13153 whole entry): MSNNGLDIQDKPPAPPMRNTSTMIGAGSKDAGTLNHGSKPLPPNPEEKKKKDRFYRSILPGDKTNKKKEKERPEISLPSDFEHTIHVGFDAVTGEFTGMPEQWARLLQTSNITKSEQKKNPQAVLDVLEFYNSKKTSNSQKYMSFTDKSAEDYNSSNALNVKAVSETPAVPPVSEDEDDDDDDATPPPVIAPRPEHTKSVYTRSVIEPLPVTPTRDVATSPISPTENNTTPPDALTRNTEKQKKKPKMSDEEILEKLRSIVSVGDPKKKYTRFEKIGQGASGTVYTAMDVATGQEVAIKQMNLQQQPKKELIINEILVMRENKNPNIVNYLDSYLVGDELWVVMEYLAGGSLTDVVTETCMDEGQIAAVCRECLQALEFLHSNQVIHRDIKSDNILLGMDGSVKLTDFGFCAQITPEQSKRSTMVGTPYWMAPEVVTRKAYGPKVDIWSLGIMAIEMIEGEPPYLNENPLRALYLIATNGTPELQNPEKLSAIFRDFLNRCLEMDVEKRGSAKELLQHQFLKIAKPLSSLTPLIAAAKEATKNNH

[14] = biological target: Mitogen-activated protein kinase kinase kinase 20 (Homo sapiens, UniProt Q9NYL2); test: Inhibition of full-length human ZAK using MBP as substrate in presence off ATP by competitive binding assay
Chain of Mitogen-activated protein kinase kinase kinase 20 (Q9NYL2 whole entry, the tested form may be a part): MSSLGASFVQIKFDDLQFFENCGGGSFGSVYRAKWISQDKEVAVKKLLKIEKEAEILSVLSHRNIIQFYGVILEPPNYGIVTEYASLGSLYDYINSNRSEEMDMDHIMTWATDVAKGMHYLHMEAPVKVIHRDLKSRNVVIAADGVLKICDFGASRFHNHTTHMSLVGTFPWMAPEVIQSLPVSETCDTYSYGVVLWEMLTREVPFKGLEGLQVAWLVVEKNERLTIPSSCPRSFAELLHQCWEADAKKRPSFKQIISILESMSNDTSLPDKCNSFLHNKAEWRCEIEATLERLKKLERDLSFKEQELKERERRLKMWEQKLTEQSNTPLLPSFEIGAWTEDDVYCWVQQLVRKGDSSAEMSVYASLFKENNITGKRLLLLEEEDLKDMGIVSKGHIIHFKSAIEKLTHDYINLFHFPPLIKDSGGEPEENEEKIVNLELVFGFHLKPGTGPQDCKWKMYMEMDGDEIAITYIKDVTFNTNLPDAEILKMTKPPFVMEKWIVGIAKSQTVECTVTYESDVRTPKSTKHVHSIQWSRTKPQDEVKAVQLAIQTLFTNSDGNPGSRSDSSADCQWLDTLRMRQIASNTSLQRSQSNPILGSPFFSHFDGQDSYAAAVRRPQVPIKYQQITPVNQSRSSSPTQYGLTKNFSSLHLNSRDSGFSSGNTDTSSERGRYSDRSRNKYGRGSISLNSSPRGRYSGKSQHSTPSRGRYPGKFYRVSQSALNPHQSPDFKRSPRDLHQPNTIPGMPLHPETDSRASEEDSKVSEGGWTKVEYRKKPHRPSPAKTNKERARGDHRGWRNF

[15] = biological target: Serine/threonine-protein kinase SIK1 (Homo sapiens, UniProt P57059); test: Inhibition of full length NanoLuc fused SIK1 (unknown origin) transfected in HEK293T cells using NanoBRET NanoGlo substrate incubated for 2 hrs in presence of tracer by NanoBRET assay; type: cell-based
Chain of Serine/threonine-protein kinase SIK1 (P57059 whole entry, the tested form may be a part): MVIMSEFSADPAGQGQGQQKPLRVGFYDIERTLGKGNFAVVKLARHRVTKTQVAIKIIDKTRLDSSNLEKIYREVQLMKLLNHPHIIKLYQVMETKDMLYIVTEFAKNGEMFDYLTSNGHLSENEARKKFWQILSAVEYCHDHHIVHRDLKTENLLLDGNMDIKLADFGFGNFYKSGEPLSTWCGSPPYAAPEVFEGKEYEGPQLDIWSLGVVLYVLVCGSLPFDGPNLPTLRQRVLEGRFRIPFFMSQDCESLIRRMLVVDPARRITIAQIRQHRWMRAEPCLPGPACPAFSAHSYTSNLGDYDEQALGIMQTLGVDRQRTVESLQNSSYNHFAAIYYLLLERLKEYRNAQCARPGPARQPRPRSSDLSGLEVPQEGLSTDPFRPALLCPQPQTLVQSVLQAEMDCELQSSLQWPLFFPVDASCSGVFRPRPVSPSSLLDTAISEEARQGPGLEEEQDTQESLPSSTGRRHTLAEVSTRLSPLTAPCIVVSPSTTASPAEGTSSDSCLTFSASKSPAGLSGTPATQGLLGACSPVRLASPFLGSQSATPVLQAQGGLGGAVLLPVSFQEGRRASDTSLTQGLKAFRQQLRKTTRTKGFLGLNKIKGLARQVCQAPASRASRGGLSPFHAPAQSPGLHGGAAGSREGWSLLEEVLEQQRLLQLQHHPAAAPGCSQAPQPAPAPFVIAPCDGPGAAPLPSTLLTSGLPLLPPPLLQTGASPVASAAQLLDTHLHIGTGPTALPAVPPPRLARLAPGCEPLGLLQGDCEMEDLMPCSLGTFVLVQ

HCT-116 [16] = test: Cytotoxicity against human HCT-116 cells assessed as effect on cell viability at 1 uM incubated for 80 hrs by Hoechst-33342 staining high-content imaging analysis; type: toxicity, cell-based; settings: hct-116, 80 h
SK-OV-3 [17] = test: Induction of cell cycle arrest in human SK-OV-3 cells assessed as accumulation of cells at G2 phase at 5 uM incubated for 24 hrs by flow cytometry (reference value: 24%); type: functional

Row | Structure (SMILES) | ΔTm [1] [°C] | ΔTm [5] [°C] | ΔTm [8] [°C] | ΔTm [11] [°C] | ΔTm [13] [°C] | also measured
1 | CNc1ncc2cc(-c3cc(C(F)(F)F)ccc3Cl)c(=O)n(CCCCN)c2n1 | 0.2 | 0.9 | 0.8 | 0.4 | 0.2 | 
2 | CN[C@@H]1C[C@H]2O[C@@](C)([C@@H]1OC)n1c3ccccc3c3c4c(c5c6ccccc6n2c5c31)C(=O)NC4 |  |  |  |  | 6.7 | 
3 | CNc1ncc2cc(-c3cc(Cl)ccc3Br)c(=O)n(CCCCN)c2n1 | 2 | 1.5 | 1.4 | 1.8 | 0.6 | 
4 | CCCS(=O)(=O)Nc1ccc(F)c(C(=O)c2c[nH]c3ncc(-c4ccc(Cl)cc4)cc23)c1F [VEMURAFENIB] |  |  |  |  |  | pIC50 [14]: 8.40
5 | CNc1ncc2cc(-c3cc(F)c(-c4cccc(C)n4)cc3F)c(=O)n(CCCCN)c2n1 | 9.7 | 2.8 | 5.2 | 7.6 | 3.6 | 
6 | CNc1ncc2cc(-c3cc(Br)ccc3Br)c(=O)n(CCCCN)c2n1 | 1.9 | 1.6 | 1.4 | 1.5 | 0.7 | 

Further lines, with some results ahead:

Row | ΔTm [1] [°C] | ΔTm [5] [°C] | ΔTm [8] [°C] | ΔTm [11] [°C] | ΔTm [13] [°C] | Structure (SMILES) | also measured
7 | 3.8 | 1.9 | 2.2 | 2.6 | 1.1 | CNc1ncc2cc(-c3ccccc3Cl)c(=O)n(CCCCN)c2n1 | inhibition [2]: Active; inhibition [3]: Active; Activity (SK-OV-3 [4]): 6%; Activity (HCT-116 [6]): Toxic; Activity (SK-OV-3 [7]): 58%; Activity (HCT-116 [9]): Toxic; inhibition [10]: Dose-Dependent Effect; inhibition [12]: Active
8 | 2.7 | 1.9 | 2.5 | 2.2 | 0 | CNc1ncc2cc(-c3cc(Br)ccc3Cl)c(=O)n(CCCCN)c2n1 | 
9 | 8.5 | 4.2 |  |  |  | CNc1ncc2cc(-c3ccc(-c4cccc(C)n4)cc3Cl)c(=O)n(C[C@H]3OC[C@H](N)CO3)c2n1 | pIC50 [15]: 7.48
10 | 1.9 | 1.6 | 1.4 | 2 | 0.7 | CNc1ncc2cc(-c3cc(Cl)ccc3Cl)c(=O)n(CCCCN)c2n1 | 
11 | 0.8 | 1.7 | 1.5 | 0.6 | 0.6 | CNc1ncc2cc(-c3cc(Br)ccc3Cl)c(=O)n(C[C@H]3OC[C@H](N)CO3)c2n1 | 
12 | 3.5 | 1.8 |  | 2.7 | 5.2 | CNc1ncc2cc(-c3ccc(-c4ncccc4F)cc3Cl)c(=O)n(C[C@H]3OC[C@H](N)CO3)c2n1 | inhibition [2]: Active; inhibition [3]: Active; Activity (HCT-116 [16]): Non-Toxic; Activity (SK-OV-3 [4]): 7%; Activity (SK-OV-3 [7]): 70%; Activity (HCT-116 [9]): Toxic; Activity (SK-OV-3 [17]): 13%; inhibition [10]: Dose-Dependent Effect; inhibition [12]: Active
